Patent US11325907B2, “Crystal form of 1H-imidazo[4,5-b]pyridine-2(3H)-one compound and preparation process therefor” (MEDSHINE DISCOVERY INC., priority 2018, dated 2022)

Experiments:
Assay type in all cases: physicochemical
[1] = Stability tests of Crystal Form A in different solvents; details: for Status (after 2 days): 50 mg, stirred at 40° C. for 2 days
Procedure: The solids in all samples were collected and dried in vacuum drying oven (40° C.) overnight. The crystal forms were tested for XRPD.

[2] = Solid stability test under long-term conditions (25° C./Relative Humidity 60%, sealed)
Procedure: (§1) Content Determination Method
(§2) Device: Agilent 1260 High Performance Liquid Chromatograph with DAD detector or Shimadzu LC-20A High Performance Liquid Chromatograph with PDA detector
(§3) Detailed Chromatographic parameters are as follows:
(§4) Chromatographic column: Agilent Eclipse plus C18 (4.6 mm×150 mm, 3.5 μm)
(§5) Column temperature: 40° C.
(§6) Detecting wavelength: 230 nm
(§7) Mobile Phase A: 0.04% trifluoroacetic acid aqueous solution (V/V)
(§8) Mobile Phase B: acetonitrile
(§9) Diluent: acetonitrile: purified water=3:1 (v/v)
(§10) Probe Wash: acetonitrile: purified water=3:1 (v/v)
(§11) Gradient elution procedure: […]
Each layer of the low-density polyethylene bag was buckled and sealed respectively and then the bag was placed in an aluminum foil bag and heat-sealed. The samples were taken on the 3rd, 6th, 9th, 12th and 18th months for testing and the test results were compared with the initial test results of day 0.

[3] = Hygroscopicity test (Dynamic Vapor Sorption); details: 25° C. and 80% RH, DVS
Procedure: Device: SEM Advantage-1 Dynamic Vapor Sorption apparatus
Testing conditions: The sample (10-20 mg) is placed in DVS sample disk for testing.
Balance: dm/dt=0.01%/min (min: 10 min, max: 180 min)
Drying: drying at 0% RH for 120 min
RH (%) testing gradient: 10%
RH (%) testing gradient range: 0% -90%-0%
The hygroscopicity is categorized as follows:
SEM DVS Advantage-1 Dynamic Vapor Sorption instrument

[4] = Solid stability test under accelerated conditions (40° C./Relative Humidity 75%, sealed); details: 6th month
[5] = Solid stability test at high temperature, high humidity and strong light
Procedure: as §1, §2, §3, §4, §5, §6, §7, §8, §9, §10, §11
The samples placed under high temperature and high humidity conditions were placed in a desiccator for inspection, and the samples were taken on the 5th, 10th and 30th days for testing, and the test results were compared with the initial test results of day 0. The samples placed under strong light were covered with a transparent lid with a sealing film, and the samples were taken on the 5th and 10th days for testing, and the test results were compared with the initial test results on day 0.

[6] = Batch 1, 25° C./Relative Humidity 60%, Sealed, 3rd month
[7] = Batch 1, 25° C./Relative Humidity 60%, Sealed, 6th month
[8] = Batch 1, 25° C./Relative Humidity 60%, Sealed, 9th month
[9] = Batch 1, 25° C./Relative Humidity 60%, Sealed, 12th month
[10] = Batch 1, 25° C./Relative Humidity 60%, Sealed, 18th month
[11] = Batch 2, 25° C./Relative Humidity 60%, Sealed, 3rd month
[12] = Batch 2, 25° C./Relative Humidity 60%, Sealed, 6th month
[13] = Batch 2, 25° C./Relative Humidity 60%, Sealed, 9th month
[14] = Batch 2, 25° C./Relative Humidity 60%, Sealed, 12th month
[15] = Batch 2, 25° C./Relative Humidity 60%, Sealed, 18th month
[16] = Batch 3, 25° C./Relative Humidity 60%, Sealed, 3rd month
[17] = Batch 3, 25° C./Relative Humidity 60%, Sealed, 6th month
[18] = Batch 3, 25° C./Relative Humidity 60%, Sealed, 9th month
[19] = Batch 3, 25° C./Relative Humidity 60%, Sealed, 12th month
[20] = Batch 3, 25° C./Relative Humidity 60%, Sealed, 18th month
[21] = Batch 1, 40° C./Relative Humidity 75%
[22] = Batch 3, 40° C./Relative Humidity 75%
[23] = High humidity (Room Temperature/Relative Humidity 92.5%, Open), Day 5
[24] = High humidity (Room Temperature/Relative Humidity 92.5%, Open), Day 10
[25] = High humidity (Room Temperature/Relative Humidity 92.5%, Open), Day 30
[26] = High temperature (60° C., Open), Day 5
[27] = High temperature (60° C., Open), Day 10
[28] = High temperature (60° C., Open), Day 30
[29] = Strong light (4500 ± 500 lux, 90 μw/cm^2, Sealed), Day 5
[30] = Strong light (4500 ± 500 lux, 90 μw/cm^2, Sealed), Day 10

CCOc1cc([C@@H](CS(C)(=O)=O)n2c(=O)[nH]c3c(C)c(-c4ccccc4F)cnc32)ccc1OC [Crystal Form A of Compound 1]
Status (after 2 days) ([1]; Acetone 0.4 mL): Suspension | Status (after 2 days) ([1]; Acetone:Water (1:2) 0.4 mL): Suspension | Status (after 2 days) ([1]; Acetonitrile 0.4 mL): Suspension | Status (after 2 days) ([1]; Acetonitrile:Water (1:1) 0.4 mL): Suspension | Status (after 2 days) ([1]; Ethanol 0.4 mL): Suspension | Status (after 2 days) ([1]; Ethanol:Water (3:1) 0.4 mL): Suspension | Status (after 2 days) ([1]; Ethyl Acetate 0.4 mL): Suspension | Status (after 2 days) ([1]; Methanol 0.4 mL): Suspension | Status (after 2 days) ([1]; Methanol:Water (3:1) 0.4 mL): Suspension | Status (after 2 days) ([1]; Tetrahydrofuran 0.3 mL): Suspension | Stability in solvents (conclusion) ([1]; alcohol solvent, acetonitrile, acetone, ethyl acetate, tetrahydrofuran and mixed solvents with water): good stability | Appearance [2, 6]: White powder | Content [2, 6]: 99.0% | Total Impurity [2, 6]: 0.09% | Appearance [2, 7]: White powder | Content [2, 7]: 101.4% | Crystal Form (XRPD) [2, 7]: Crystal Form A | Total Impurity [2, 7]: 0.09% | Appearance [2, 8]: White powder | Content [2, 8]: 99.6% | Total Impurity [2, 8]: 0.09% | Appearance [2, 9]: White powder | Content [2, 9]: 98.8% | Crystal Form (XRPD) [2, 9]: Crystal Form A | Total Impurity [2, 9]: 0.08% | Appearance [2, 10]: White powder | Content [2, 10]: 97.3% | Total Impurity [2, 10]: 0.10% | Appearance ([2]; Batch 1, Day 0): White powder | Content ([2]; Batch 1, Day 0): 99.4% | Crystal Form (XRPD) ([2]; Batch 1, Day 0): Crystal Form A | Total Impurity ([2]; Batch 1, Day 0): 0.09% | Appearance [2, 11]: White powder | Content [2, 11]: 100.5% | Total Impurity [2, 11]: 0.11% | Appearance [2, 12]: White powder | Content [2, 12]: 100.1% | Crystal Form (XRPD) [2, 12]: Crystal Form A | Total Impurity [2, 12]: 0.12% | Appearance [2, 13]: White powder | Content [2, 13]: 99.6% | Total Impurity [2, 13]: 0.11% | Appearance [2, 14]: White powder | Content [2, 14]: 98.2% | Crystal Form (XRPD) [2, 14]: Crystal Form A | Total Impurity [2, 14]: 0.09% | Appearance [2, 15]: White powder | Content [2, 15]: 99.1% | Total Impurity [2, 15]: 0.11% | Appearance ([2]; Batch 2, Day 0): White powder | Content ([2]; Batch 2, Day 0): 99.4% | Crystal Form (XRPD) ([2]; Batch 2, Day 0): Crystal Form A | Total Impurity ([2]; Batch 2, Day 0): 0.10% | Appearance [2, 16]: White powder | Content [2, 16]: 98.9% | Total Impurity [2, 16]: 0.16% | Appearance [2, 17]: White powder | Content [2, 17]: 98.5% | Crystal Form (XRPD) [2, 17]: Crystal Form A | Total Impurity [2, 17]: 0.12% | Appearance [2, 18]: White powder | Content [2, 18]: 99.2% | Total Impurity [2, 18]: 0.11% | Appearance [2, 19]: White powder | Content [2, 19]: 98.4% | Crystal Form (XRPD) [2, 19]: Crystal Form A | Total Impurity [2, 19]: 0.10% | Appearance [2, 20]: White powder | Content [2, 20]: 99.7% | Total Impurity [2, 20]: 0.17% | Appearance ([2]; Batch 3, Day 0): White powder | Content ([2]; Batch 3, Day 0): 99.5% | Crystal Form (XRPD) ([2]; Batch 3, Day 0): Crystal Form A | Total Impurity ([2]; Batch 3, Day 0): 0.11% | Solid stability (conclusion) ([2]; long-term conditions of 25° C./Relative Humidity 60%): good stability | Hygroscopic Category [3]: no or little hygroscopicity | ΔW (hygroscopic weight gain) [3]: 0.08% | Appearance [4, 21]: White powder | Crystal Form (XRPD) [4, 21]: Crystal Form A | Appearance [4, 22]: White powder | Crystal Form (XRPD) [4, 22]: Crystal Form A | Appearance ([5]; Day 0 (initial)): White | Content ([5]; Day 0 (initial)): 99.5% | Total Impurity ([5]; Day 0 (initial)): 0.11% | Appearance [5, 23]: White | Content [5, 23]: 99.0% | Total Impurity [5, 23]: 0.16% | Appearance [5, 24]: White | Content [5, 24]: 98.9% | Total Impurity [5, 24]: 0.16% | Appearance [5, 25]: White | Content [5, 25]: 99.0% | Total Impurity [5, 25]: 0.16% | Appearance [5, 26]: White | Content [5, 26]: 99.2% | Total Impurity [5, 26]: 0.16% | Appearance [5, 27]: White | Content [5, 27]: 98.8% | Total Impurity [5, 27]: 0.16% | Appearance [5, 28]: White | Content [5, 28]: 99.0% | Total Impurity [5, 28]: 0.16% | Appearance [5, 29]: White | Content [5, 29]: 98.8% | Total Impurity [5, 29]: 0.11% | Appearance [5, 30]: White | Content [5, 30]: 98.6% | Total Impurity [5, 30]: 0.11% | Solid stability (conclusion) ([5]; high temperature, high humidity or strong light conditions): good stability
